By Ki is commonly meant the equilibrium dissociation constant of an inhibitor or competing ligand from its target. In general, IC50 refers to the midpoint of a concentration-inhibition curve.

The source of these data is patent publication US20060100243A1 (priority 2004, published 2006).

The target in data set [1] is T1, recombinant human norepinephrine transporter (Homo sapiens, UniProt P23975).
T1 construct: expressed in transfected cells
Description: biochemical. Format: binding.

For data set [2], the target named is T2, recombinant human dopamine transporter (Homo sapiens, UniProt Q01959).
T2 construct: expressed in transfected cells
T2 sequence (Q01959 whole entry): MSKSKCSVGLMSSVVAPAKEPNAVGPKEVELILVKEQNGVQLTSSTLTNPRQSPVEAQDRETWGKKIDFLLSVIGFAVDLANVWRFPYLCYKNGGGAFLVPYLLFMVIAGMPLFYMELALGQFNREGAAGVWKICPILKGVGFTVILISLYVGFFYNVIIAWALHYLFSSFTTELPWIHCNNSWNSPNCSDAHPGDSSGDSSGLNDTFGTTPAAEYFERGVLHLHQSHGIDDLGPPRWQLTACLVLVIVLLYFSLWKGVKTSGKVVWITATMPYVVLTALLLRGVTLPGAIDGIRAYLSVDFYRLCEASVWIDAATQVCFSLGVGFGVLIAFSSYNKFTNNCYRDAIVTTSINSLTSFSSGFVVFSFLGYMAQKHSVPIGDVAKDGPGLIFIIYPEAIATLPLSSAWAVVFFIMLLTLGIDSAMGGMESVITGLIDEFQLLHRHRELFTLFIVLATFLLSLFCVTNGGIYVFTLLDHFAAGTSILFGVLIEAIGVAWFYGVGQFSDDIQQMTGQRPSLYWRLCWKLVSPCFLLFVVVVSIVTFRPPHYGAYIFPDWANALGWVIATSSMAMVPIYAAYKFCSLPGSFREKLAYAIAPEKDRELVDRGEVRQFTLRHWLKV
Description: dopamine reuptake inhibition in HEK 293 cells. Conditions: for IC50: HEK 293 cells; for NE/DA REUPTAKE: ratio of NE/DA reuptake IC50, selectivity for dopamine over norepinephrine transporter. Type of data set: cell-based.

Data set [3] has as its target T2, recombinant human dopamine transporter. Briefly: [125I]RTI-55 binding, dopamine transporter in HEK 293 cells. Conditions: for Ki: HEK 293 cells; for potency at binding to the dopamine transporter and blocking dopamine reuptake: in words, compared with MPH / other samples.
In data set [4] the target is T1, recombinant human norepinephrine transporter. Description: cell-based.
The test system of data set [5] is male Swiss-Webster mice. Briefly: dose response study of induced locomotor stimulation. Conditions: for time of occurrence of stimulant effects following injection: at the active doses.
The target in data set [6] is T3, recombinant human serotonin transporter (Homo sapiens, UniProt P31645).
T3 construct: expressed in transfected cells
T3 sequence (P31645 whole entry): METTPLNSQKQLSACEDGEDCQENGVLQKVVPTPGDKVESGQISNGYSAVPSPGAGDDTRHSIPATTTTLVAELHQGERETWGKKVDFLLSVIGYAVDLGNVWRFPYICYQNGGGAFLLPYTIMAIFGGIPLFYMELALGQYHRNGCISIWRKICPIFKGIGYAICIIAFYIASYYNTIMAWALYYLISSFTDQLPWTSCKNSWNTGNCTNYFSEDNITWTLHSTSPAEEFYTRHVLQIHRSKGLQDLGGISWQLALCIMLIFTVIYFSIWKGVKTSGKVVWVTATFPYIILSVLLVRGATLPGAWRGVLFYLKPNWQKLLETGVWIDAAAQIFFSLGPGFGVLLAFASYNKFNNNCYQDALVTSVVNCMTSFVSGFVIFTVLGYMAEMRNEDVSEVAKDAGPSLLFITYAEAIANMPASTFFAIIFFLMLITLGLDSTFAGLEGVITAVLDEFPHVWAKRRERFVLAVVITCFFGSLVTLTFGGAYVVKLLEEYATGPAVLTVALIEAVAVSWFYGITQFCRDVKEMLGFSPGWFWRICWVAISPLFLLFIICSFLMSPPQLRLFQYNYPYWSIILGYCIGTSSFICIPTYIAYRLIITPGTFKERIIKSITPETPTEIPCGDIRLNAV
Briefly: biochemical. Format: binding.

Data set [7] addresses T3, recombinant human serotonin transporter. Briefly: serotonin (5HT) reuptake inhibition in HEK 293 cells. Type of data set: cell-based. Particulars: SEROTONIN 5HT REUPTAKE (IC50), HEK 293 cells.
The conditions of data set [8]: prescribed doses; cited from earlier work.
Where [9] appears, read: RR/SS racemates table, HEK 293 cells, read-out: NOREPINEPHRINE [I125]-RTI-55 BINDING (Ki).
The mark [10] stands for this setting: RR/SS racemates table, HEK 293 cells, read-out: NOREPINEPHRINE NE REUPTAKE (IC50).
Where [11] appears, read: NOREPINEPHRINE [I125]-RTI-55 BINDING (Ki).
The mark [12] stands for this setting: DOPAMINE DA REUPTAKE (IC50), RS/SR racemates table.
The mark [13] stands for this setting: DOPAMINE [I125]-RTI-55 BINDING (Ki), RS/SR racemates table.
Setting [14] is: SEROTONIN [I125]-RTI-55 BINDING (Ki).
Where [15] appears, read: DOPAMINE DA REUPTAKE (IC50), RR/SS racemates table.
Setting [16] is: DOPAMINE [I125]-RTI-55 BINDING (Ki), RR/SS racemates table.
Setting [17] is: RS/SR racemates table, HEK 293 cells, read-out: NOREPINEPHRINE [I125]-RTI-55 BINDING (Ki).
Where [18] appears, read: RS/SR racemates table, HEK 293 cells, read-out: SEROTONIN [I125]-RTI-55 BINDING (Ki).
The mark [19] stands for this setting: RS/SR racemates table, HEK 293 cells, read-out: NOREPINEPHRINE NE REUPTAKE (IC50).
Setting [20] is: RR/SS racemates table, HEK 293 cells, read-out: SEROTONIN [I125]-RTI-55 BINDING (Ki).

Entries after “also recorded” stand apart in the source; their conditions may differ. Like-named read-outs stand apart in the source and are kept apart here.

T1 sequence (P23975 whole entry): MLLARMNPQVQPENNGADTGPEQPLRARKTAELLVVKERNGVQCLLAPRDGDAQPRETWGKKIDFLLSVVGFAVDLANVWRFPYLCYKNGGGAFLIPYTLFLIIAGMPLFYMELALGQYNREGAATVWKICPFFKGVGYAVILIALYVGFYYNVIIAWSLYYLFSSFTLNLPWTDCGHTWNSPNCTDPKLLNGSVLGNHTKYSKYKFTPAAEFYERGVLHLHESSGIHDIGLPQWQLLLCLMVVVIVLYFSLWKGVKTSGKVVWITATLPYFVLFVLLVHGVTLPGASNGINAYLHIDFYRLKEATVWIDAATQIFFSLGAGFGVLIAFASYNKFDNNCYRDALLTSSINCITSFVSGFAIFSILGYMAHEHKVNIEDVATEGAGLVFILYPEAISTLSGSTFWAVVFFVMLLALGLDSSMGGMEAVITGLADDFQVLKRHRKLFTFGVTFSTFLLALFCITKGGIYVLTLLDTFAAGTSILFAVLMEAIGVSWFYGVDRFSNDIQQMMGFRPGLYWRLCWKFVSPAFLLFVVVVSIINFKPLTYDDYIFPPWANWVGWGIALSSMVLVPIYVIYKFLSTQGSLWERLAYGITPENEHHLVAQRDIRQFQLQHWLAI

For `CC(C)CC(c1ccc(Cl)cc1)C1CCCCN1` (racemic) [Sample D], the Ki is 840 ± 130 nM in data set [1] (setting [9]) and 16 ± 4 nM in data set [3] (RR/SS racemates table, read-out: DOPAMINE [I125]-RTI-55 BINDING (Ki)). Further, the IC50 in data set [2] (RR/SS racemates table, read-out: DOPAMINE DA REUPTAKE (IC50)) came to 8.6 ± 2.9 nM; in data set [4] (setting [10]), 120 ± 40 nM. Also, the “potency at binding to the dopamine transporter and blocking dopamine reuptake” value in data set [3] is listed as “enhanced potency; also recorded: most potent”. Also, the “duration of stimulant effects” value was “up to 4 hours” in data set [5] (mice, IP, 3 mg/kg); at most 5 h in data set [5] (mice, IP, 10 mg/kg); “over 8 hours” in data set [5] (mice, IP, 30 mg/kg). The “time of occurrence of stimulant effects following injection” value in data set [5] (mice, IP) is “at least 20 minutes”.

As for `Clc1ccc(C(CCc2ccccc2)C2CCCCN2)cc1` (single isomer, unassigned) [II], the results for the Ki in data set [1] (setting [11]), in data set [3] (setting [13]) and in data set [6] (setting [14]) were 2400 ± 700 nM, 700 ± 90 nM and 1840 ± 70 nM, respectively. For the same compound, the IC50 in data set [2] (setting [12]) is 420 ± 140 nM; in data set [4] (NORE[…] REUPTAKE (IC50)), 610 ± 150 nM; in data set [7] (RS/SR racemates table), 2100 ± 900 nM.

For `Clc1ccc(C(CCc2ccccc2)C2CCCCN2)cc1` (single isomer, unassigned) [I], the Ki in data set [1] (setting [11]) came out at 1800 ± 600 nM; in data set [3] (setting [16]), 24 ± 9 nM; in data set [6] (setting [14]), 640 ± 60 nM. The IC50 in data set [2] (setting [15]) came out at 160 ± 20 nM; in data set [4] (NORE[…] REUPTAKE (IC50)), 680 ± 240 nM; in data set [7] (RR/SS racemates table) it was 650 ± 219 nM. Besides, the “NE/DA REUPTAKE” value in data set [2] was 4.3.

Take `Clc1ccc(C(Cc2ccccc2)C2CCCCN2)cc1` (single isomer, unassigned) [JJ]: the Ki came out at 4000 ± 800 nM in data set [1] (setting [11]), 550 ± 60 nM in data set [3] (setting [13]) and 4300 ± 800 nM in data set [6] (setting [14]). In addition, the results for the IC50 in data set [2] (setting [12]), in data set [4] (NORE[…] REUPTAKE (IC50)) and in data set [7] (RS/SR racemates table) were 390 ± 60 nM, above 800 nM and 4700 ± 500 nM, respectively.

As for `Clc1ccc(C(Cc2ccccc2)C2CCCCN2)cc1` (single isomer, unassigned) [J], the Ki in data set [1] (setting [11]) is 2900 ± 800 nM; in data set [3] (setting [16]), 440 ± 110 nM; in data set [6] (setting [14]) it was 1100 ± 200 nM. Besides, the results for the IC50 in data set [2] (setting [15]), in data set [4] (NORE[…] REUPTAKE (IC50)) and in data set [7] (RR/SS racemates table) were 370 ± 90 nM, 2900 ± 600 nM and 1100 ± 200 nM, respectively. Moreover, in data set [2] (in words, from binding and reuptake values), the “selectivity for the dopamine transporter over the norepinephrine transporter” value is recorded as “enhanced selectivity”. The “NE/DA REUPTAKE” value in data set [2] worked out at 7.8.

In the case of `COC(=O)C(c1ccc(Cl)c(Cl)c1)C1CCCCN1` (single isomer, unassigned) [MM], the Ki in data set [1] (setting [17]) turned out to be 4200 ± 1900 nM; in data set [3] (setting [13]), 90 ± 14 nM; in data set [6] (setting [18]), 2500 ± 420 nM. Besides, the IC50 in data set [2] (setting [12]) came out at 800 ± 110 nM; in data set [4] (setting [19]), 190 ± 50 nM; in data set [7] (RS/SR racemates table) it was 1100 ± 90 nM.

Consider `COC(=O)C(c1ccc(Cl)c(Cl)c1)C1CCCCN1` (single isomer, unassigned) [M], for which the Ki came out at 14 ± 6 nM in data set [1] (setting [9]), 1.4 ± 0.1 nM in data set [3] (setting [16]) and 1600 ± 150 nM in data set [6] (setting [20]). Besides, the IC50 was found to be 23 ± 3 nM in data set [2] (setting [15]), 10 ± 1 nM in data set [4] (setting [10]) and 540 ± 110 nM in data set [7] (RR/SS racemates table). Besides, the “NE/DA REUPTAKE” value in data set [2] is listed as 0.43.

As for `CC(C)CC(c1ccc(Cl)c(Cl)c1)C1CCCCN1C` (single isomer, unassigned) [OO], the Ki is 660 ± 130 nM in data set [1] (setting [17]), 44 ± 12 nM in data set [3] (setting [13]) and 1500 ± 300 nM in data set [6] (setting [18]). In addition, the figures for the IC50 in data set [2] (setting [12]), in data set [4] (setting [19]) and in data set [7] (RS/SR racemates table) were 45 ± 4 nM, 100 ± 19 nM and 2400 ± 700 nM, respectively. Moreover, the “potency at binding to the dopamine transporter and blocking dopamine reuptake” value in data set [3] was “considerably more potent; also recorded: most potent”.

Consider `CC(C)CC(c1ccc(Cl)c(Cl)c1)C1CCCCN1C` (single isomer, unassigned) [O], for which the Ki in data set [1] (setting [9]) was determined as 190 ± 60 nM; in data set [3] (setting [16]), 6.6 ± 0.9 nM; in data set [6] (setting [20]), 1300 ± 200 nM. Further, the IC50 in data set [2] (setting [15]) was determined as 13 ± 4 nM; in data set [4] (setting [10]) it was 29 ± 3 nM; in data set [7] (RR/SS racemates table) it was 1400 ± 500 nM. Also, the “NE/DA REUPTAKE” value in data set [2] worked out at 2.2.

With `COC(=O)C(c1ccccc1)C1CCCCN1` (centres unmarked) [MPH, methylphenidate, reference compound], the Ki in data set [1] (NOREPINEPHRINE [I125]-RTI-55 BINDING (Ki), RR/SS racemates table, HEK 293 cells) stood at 1800 ± 800 nM; in data set [1] (NOREPINEPHRINE [I125]-RTI-55 BINDING (Ki), RS/SR racemates table, HEK 293 cells), 1800 ± 800 nM; in data set [6] (setting [14]), 40000 ± 8000 nM. In addition, the “binding to or reuptake at the serotonin transporter” value in data set [6] was “neither MPH nor the MPH analogs demonstrated significant binding to or reuptake at the serotonin transporter”. Also, the half-maximal inhibitory concentration (IC50) turned out to be 38 ± 4 nM in data set [4] (NORE[…] REUPTAKE (IC50), RR/SS racemates table, HEK 293 cells); 38 ± 4 nM in data set [4] (NORE[…] REUPTAKE (IC50), RS/SR racemates table, HEK 293 cells); 55000 ± 16000 nM in data set [7] (RR/SS racemates table); 55000 ± 16000 nM in data set [7] (RS/SR racemates table). In data set [8], the “time of maximum drug concentration after oral administration” value is given as “about two hours”. Also, the “time of occurrence of stimulant effects following injection” value in data set [5] (mice, IP) was at most 10 min. Besides, in data set [5] (mouse, in vivo), the “duration of stimulant effects” value is given as “up to 4 hours”.

For the compound `COC(=O)[C@H]1[C@@H](OC(=O)c2ccccc2)C[C@@H]2CC[C@H]1N2C` [cocaine], the “period of maximal stimulant effects” value in data set [5] (mice, IP, 20 mg/kg) is at most 30 min. In data set [5] (mice, IP, 10, 20, and 40 mg/kg), the “duration of stimulant effects” value was “up to 2 hours”. Moreover, the “time of occurrence of stimulant effects following injection” value in data set [5] (mice, IP) was at most 10 min.
